# Results: paper PMC10803328 (Scientific Reports, 2024)
# Several values for one entry are separate records, joined by “and”; a condition that tells them apart may be missing. Equal entries are not always repeated. Entries after “also recorded” stand apart in the source; their conditions may differ.
# Columns and labels:
# [1] = PET imaging and arterial plasma radiometabolite analysis in non-transduced healthy monkey; format: in vivo, rhesus monkey
# Experimental: (§1) All PET imaging studies were performed with a Mediso LFER 150 preclinical scanner (nanoScan PET/CT). Brain and brain region radioactivity uptake was expressed by standardized uptake value (SUV) which normalizes for injected radioactivity and monkey body weight, as follows: SUV = [(% injected dose per g tissue) × body weight in g]/100.
# (§2) Two male rhesus monkeys (macaca mulatta; 10.0 and 8.6 kg) underwent PET scanning. Each monkey was initially immobilized with ketamine (10 mg/kg, i.m.) and then maintained under anesthesia with 1.5% isoflurane. For each monkey, a baseline scan was performed for 120 min. […] Electrocardiogram, body temperature, heart, and respiration rates were monitored throughout the scans.
# (§3) Total radioactivity concentrations in sampled arterial whole blood and plasma were measured in a γ-counter throughout the 90-min scanning period.
# (§4) PET images were reconstructed using Fourier rebinding plus two-dimensional filtered back-projection with attenuation and scatter correction. Images were co-registered to a standardized monkey MRI template using the FMRIB Software Library (FSL; Oxford, UK). Thirty-four predefined brain regions of interest from the template were applied to the co-registered PET image to obtain regional, decay-corrected, time-activity curves.
# PSAM^4-GlyR = assay: PET imaging and arterial plasma radiometabolite analysis in monkey transduced with PSAM^4-GlyR in the left amygdala; format: in vivo, rhesus monkey
# Experimental: All studies were conducted in accordance with “Animal Research: Reporting of In Vivo Experiments” guidelines as well as Guidelines for the Care and Use of Laboratory Animals, 8th Edition, and were approved by the National Institute of Mental Health Animal Care and Use Committee. A lentivirus carrying an PSAM^4 expressed under a human synapsin promoter (Lenti-hSyn-PSAM^4-GlyR) was injected into the left amygdala of a single rhesus macaque (11-year-old male). 14 × 20 μL of virus was injected at 1.0 μL/min speed. The virus titer was measured at 1 × 10^9 i.u./mL. The surgery was performed under aseptic conditions in a fully equipped operating suite.
# as §1, §2, §3, §4
# [2] = non-transduced healthy monkey, i.v., PET
structure (smiles),measurement,setting,value
[11CH3]n1c(=O)cnc2cc3c(cc21)C1CNCC3C1 (centres unmarked) [[^11C]uPSEM792],time at which radiometabolites represented half of the radioactivity in plasma,"[1]; male, rhesus monkey, in vivo",78 min
same,unchanged radioligand peak in plasma radiochromatogram,"[1]; male, rhesus monkey, in vivo, 120 min",29%
same,peak of whole brain time-activity curve,[1]; [2],0.8 SUV and ~ 0.8 SUV
same,plateau of whole brain time-activity curve,[1]; [2],about 0.65 SUV
same,difference in uptake of radioactivity between left (PSAM^4-GlyR) and right amygdala,"PSAM^4-GlyR; PSAM^4-GlyR monkey, PET",No significant difference
same,evidence of PSAM^4-GlyR specific binding in left amygdala,"PSAM^4-GlyR; PSAM^4-GlyR monkey, PET, compartmental modeling",do not reveal any evidence of specific binding; also recorded: no evidence was obtained for PSAM^4-GlyR specific binding
same,time at which radiometabolites accounted for 50% of radioactivity in plasma,"PSAM^4-GlyR; male, rhesus monkey, in vivo",30 min
same,peak whole brain radioactivity uptake,"PSAM^4-GlyR; monkey transduced in the left amygdala with PSAM^4-GlyR, i.v., PET",~ 0.8 SUV
